# Measured values taken from patent US7893031B2, “Neuronal differentiation inhibitor peptide and use thereof” (Toagosei Co., Ltd., priority 2005, dated 2011).
# No end group written: not given here.
# Tested on: adipose stem cells procured from humans
# Test: Evaluation of neuronal differentiation inhibitor activity of the synthetic peptides (immunostaining for MAPs and NeuN neuron markers, confocal laser microscopy)
# Assay type: cell-based
# Conditions: culture of human adipose stem cells, 24 hours after peptide addition; for degree of neuronal differentiation (neuron markers MAPs and NeuN) when added together with VHL peptide: sample peptide added together with VHL peptide (comparative sample 1), each about 100 ng/mL
# Protocol: Each sample obtained in example 1 was analyzed for the neuronal differentiation inhibitor activity.
# In particular, each sample peptide together with the peptide of comparative sample 1 (hereinafter referred to as VHL peptide) was added to and incubated in a culture of adipose stem cells procured from humans. The addition concentration of each peptide was about 100 ng/mL. For comparison, a culture containing VHL peptide alone was incubated in a similar manner.
# At 24 hours after peptide addition, evaluation was carried out by a standard immune antibody procedure. Specifically, MAPs ([…]) and NeuN (neuronal nuclei) were added as neuron markers, and the degree of neuronal differentiation was evaluated by confocal laser microscopy. MAPs is a marker that can stain (detect) broadly, from relatively immature neurons to mature neurons. NeuN is a marker that can specifically stain (detect) mature neurons.
Substance,degree of neuronal differentiation (neuron markers MAPs and NeuN) when added together with VHL peptide,"degree of neuronal differentiation (neuron markers MAPs and NeuN) (VHL peptide alone, about 100 ng/mL)"
"YARAAARQARA-SLQTLCEISLMRNHS (YARAAARQARASLQTLCEISLMRNHS; not fully specified (C-terminus); printed as YARAAARQARA-SLQTLCEISLMRNHS) [Sample 3, PTD4 domain plus 15 N-terminal residues of the BC-box of S. cerevisiae elongin-A]",no significant neuronal differentiation was observed,–
"YARAAARQARA-TLHQQCIRVLKNNID (YARAAARQARATLHQQCIRVLKNNID; not fully specified (C-terminus); printed as YARAAARQARA-TLHQQCIRVLKNNID) [Sample 1, PTD4 domain plus 15 N-terminal residues of the BC-box of human elongin-A]",no significant neuronal differentiation was observed,–
"YARAAARQARA-TLKERCLQVVRSLVK (YARAAARQARATLKERCLQVVRSLVK) [VHL peptide, reference compound]",–,significant neuronal differentiation
"YARAAARQARA-TLVSLCQTVLMSHID (YARAAARQARATLVSLCQTVLMSHID; not fully specified (C-terminus); printed as YARAAARQARA-TLVSLCQTVLMSHID) [Sample 2, PTD4 domain plus 15 N-terminal residues of the BC-box of C. elegans elongin-A]",no significant neuronal differentiation was observed,–
